target: MCH receptor (Homo sapiens, UniProt Q99705); test: Receptor binding assay with Radiolabelled MCH Ligand; set-up: expressed in transfected cells; host or cells: 293 cells (human kidney, ATCC), transient transfection; crude membranes; conditions: class by percent of control at 10^-7 M or IC50
Summary of the method: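 Membranes from 293 cells transiently transfected with human MCH receptor competed test compounds against a radiolabelled MCH ligand in Tris-HCl pH 7.4 with MgCl2 and EDTA for 60–120 min at room temperature. Filtration and scintillation counting followed, with cold MCH defining nonspecific binding. IC50 came from logit-log plots of %B/B0, and Ki from the Cheng-Prusoff equation.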

MCH receptor, sequence (Q99705 whole entry): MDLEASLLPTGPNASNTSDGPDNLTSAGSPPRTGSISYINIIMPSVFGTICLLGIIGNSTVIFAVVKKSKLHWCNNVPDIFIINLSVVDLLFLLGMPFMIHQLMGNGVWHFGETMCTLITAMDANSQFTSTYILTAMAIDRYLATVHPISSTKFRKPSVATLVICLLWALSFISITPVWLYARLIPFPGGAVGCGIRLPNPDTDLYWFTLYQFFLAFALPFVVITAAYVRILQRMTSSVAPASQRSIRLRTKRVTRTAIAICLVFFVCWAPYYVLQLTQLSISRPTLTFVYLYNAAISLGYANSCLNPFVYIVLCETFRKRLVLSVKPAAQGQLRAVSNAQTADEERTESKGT

SMILES	class
Cc1nc(N[C@H]2CC[C@@H](NCCOc3c(F)c(F)c(F)c(F)c3F)CC2)cc(N(C)C)n1 [compound 389]	3 (Class 3: The value of percent of control at 10^−7 M was more than 60% or the value of IC50 was more than 200 nM.)
COc1ccc(CCN[C@H]2CC[C@@H](Nc3cc(N(C)C)nc(C)n3)CC2)cc1OC [compound 390]	3 (Class 3: The value of percent of control at 10^−7 M was more than 60% or the value of IC50 was more than 200 nM.)
Cc1nc(N[C@H]2CC[C@@H](NCCSc3ccccc3)CC2)cc(N(C)C)n1 [compound 391]	3 (Class 3: The value of percent of control at 10^−7 M was more than 60% or the value of IC50 was more than 200 nM.)
Cc1nc(N[C@H]2CC[C@@H](NCc3cccc4c3-c3ccccc3C4=O)CC2)cc(N(C)C)n1 [compound 392]	3 (Class 3: The value of percent of control at 10^−7 M was more than 60% or the value of IC50 was more than 200 nM.)
Cc1nc(N[C@H]2CC[C@@H](NCc3ccc(OC(F)(F)F)cc3)CC2)cc(N(C)C)n1 [compound 393]	3 (Class 3: The value of percent of control at 10^−7 M was more than 60% or the value of IC50 was more than 200 nM.)
Cc1nc(N[C@H]2CC[C@@H](NCc3ccc(F)cc3C(F)(F)F)CC2)cc(N(C)C)n1 [compound 394]	3 (Class 3: The value of percent of control at 10^−7 M was more than 60% or the value of IC50 was more than 200 nM.)
Cc1nc(N[C@H]2CC[C@@H](NCCc3ccc(F)cc3)CC2)cc(N(C)C)n1 [compound 395]	3 (Class 3: The value of percent of control at 10^−7 M was more than 60% or the value of IC50 was more than 200 nM.)
CCCCCCCOc1ccc(CN[C@H]2CC[C@@H](Nc3cc(N(C)C)nc(C)n3)CC2)cc1 [compound 396]	3 (Class 3: The value of percent of control at 10^−7 M was more than 60% or the value of IC50 was more than 200 nM.)
CCCCCc1ccc(CN[C@H]2CC[C@@H](Nc3cc(N(C)C)nc(C)n3)CC2)cc1 [compound 397]	3 (Class 3: The value of percent of control at 10^−7 M was more than 60% or the value of IC50 was more than 200 nM.)
Cc1nc(N[C@H]2CC[C@@H](NCC3CCCC3)CC2)cc(N(C)C)n1 [compound 398]	3 (Class 3: The value of percent of control at 10^−7 M was more than 60% or the value of IC50 was more than 200 nM.)
CCCCCCCCCc1ccc(CN[C@H]2CC[C@@H](Nc3cc(N(C)C)nc(C)n3)CC2)cc1 [compound 399]	3 (Class 3: The value of percent of control at 10^−7 M was more than 60% or the value of IC50 was more than 200 nM.)
Cc1nc(N[C@H]2CC[C@@H](NCCOc3ccc(C(C)(C)C)cc3)CC2)cc(N(C)C)n1 [compound 400]	3 (Class 3: The value of percent of control at 10^−7 M was more than 60% or the value of IC50 was more than 200 nM.)
Cc1nc(N[C@H]2CC[C@@H](NCc3ccc(F)c(Cl)c3)CC2)cc(N(C)C)n1 [compound 401]	3 (Class 3: The value of percent of control at 10^−7 M was more than 60% or the value of IC50 was more than 200 nM.)
Cc1nc(N[C@H]2CC[C@@H](NCCC3CCCC3)CC2)cc(N(C)C)n1 [compound 402]	3 (Class 3: The value of percent of control at 10^−7 M was more than 60% or the value of IC50 was more than 200 nM.)
Cc1nc(N[C@H]2CC[C@@H](NCCCc3ccccc3)CC2)cc(N(C)C)n1 [compound 403]	3 (Class 3: The value of percent of control at 10^−7 M was more than 60% or the value of IC50 was more than 200 nM.)
Cc1nc(N[C@H]2CC[C@@H](NC[C@H](Cc3ccccc3)NS(=O)(=O)c3cccc4ccccc34)CC2)cc(N(C)C)n1 [compound 404]	3 (Class 3: The value of percent of control at 10^−7 M was more than 60% or the value of IC50 was more than 200 nM.)
Cc1nc(N[C@H]2CC[C@@H](NCc3ccc(SC(F)(F)F)cc3)CC2)cc(N(C)C)n1 [compound 405]	3 (Class 3: The value of percent of control at 10^−7 M was more than 60% or the value of IC50 was more than 200 nM.)
Cc1nc(N[C@H]2CC[C@@H](NCCc3ccccc3Br)CC2)cc(N(C)C)n1 [compound 406]	3 (Class 3: The value of percent of control at 10^−7 M was more than 60% or the value of IC50 was more than 200 nM.)
Cc1nc(N[C@H]2CC[C@@H](NCc3cc(C(C)(C)C)nn3Cc3ccccc3)CC2)cc(N(C)C)n1 [compound 407]	3 (Class 3: The value of percent of control at 10^−7 M was more than 60% or the value of IC50 was more than 200 nM.)
Cc1nc(N[C@H]2CC[C@@H](NCC(C)(C)Oc3ccc(Cl)cc3)CC2)cc(N(C)C)n1 [compound 408]	3 (Class 3: The value of percent of control at 10^−7 M was more than 60% or the value of IC50 was more than 200 nM.)

SMILES	class
Cc1nc(N[C@H]2CC[C@@H](NCc3cc(C(C)(C)C)nn3Cc3ccc(Cl)cc3Cl)CC2)cc(N(C)C)n1 [compound 409]	3 (Class 3: The value of percent of control at 10^−7 M was more than 60% or the value of IC50 was more than 200 nM.)
Cc1nc(N[C@H]2CC[C@@H](NCc3cnn(C)c3Cl)CC2)cc(N(C)C)n1 [compound 410]	3 (Class 3: The value of percent of control at 10^−7 M was more than 60% or the value of IC50 was more than 200 nM.)
Cc1nc(N[C@H]2CC[C@@H](NC(=O)NCc3ccccc3Cl)CC2)cc(N(C)C)n1 [compound 412]	3 (Class 3: The value of percent of control at 10^−7 M was more than 60% or the value of IC50 was more than 200 nM.)
Cc1nc(N[C@H]2CC[C@@H](NC(=O)NCc3ccc(F)cc3)CC2)cc(N(C)C)n1 [compound 413]	3 (Class 3: The value of percent of control at 10^−7 M was more than 60% or the value of IC50 was more than 200 nM.)
Cc1nc(N[C@H]2CC[C@@H](NC(=O)NC(c3ccccc3)c3ccccc3)CC2)cc(N(C)C)n1 [compound 414]	3 (Class 3: The value of percent of control at 10^−7 M was more than 60% or the value of IC50 was more than 200 nM.)
Cc1nc(N[C@H]2CC[C@@H](NC(=O)Nc3c(C)cc(Br)cc3C)CC2)cc(N(C)C)n1 [compound 416, N-(4-bromo-2,6-dimethylphenyl)-N′-(cis-4-{[6-(dimethylamino)-2-methylpyrimidin-4-yl]amino}cyclohexyl)urea]	1 (Class 1: The value of percent of control at 10^−7 M was less than 40% or the value of IC50 was less than 50 nM.)
Cc1cc(C)c(NC(=O)N[C@H]2CC[C@@H](Nc3cc(N(C)C)nc(C)n3)CC2)c(C)c1 [compound 417]	3 (Class 3: The value of percent of control at 10^−7 M was more than 60% or the value of IC50 was more than 200 nM.)
Cc1nc(N[C@H]2CC[C@@H](NC(=O)Nc3ccc(Cl)cc3C)CC2)cc(N(C)C)n1 [compound 418, N-(4-chloro-2-methylphenyl)-N′-(cis-4-{[6-(dimethylaminio)-2-methylpyrimidin-4-yl]amino}cyclohexyl)urea]	3 (Class 3: The value of percent of control at 10^−7 M was more than 60% or the value of IC50 was more than 200 nM.)
CCc1cccc(C(C)C)c1NC(=O)N[C@H]1CC[C@@H](Nc2cc(N(C)C)nc(C)n2)CC1 [compound 419]	3 (Class 3: The value of percent of control at 10^−7 M was more than 60% or the value of IC50 was more than 200 nM.)
Cc1nc(N[C@H]2CC[C@@H](NC(=O)Nc3ccc(Br)cc3C)CC2)cc(N(C)C)n1 [compound 420]	3 (Class 3: The value of percent of control at 10^−7 M was more than 60% or the value of IC50 was more than 200 nM.)
CCc1cccc(C)c1NC(=O)N[C@H]1CC[C@@H](Nc2cc(N(C)C)nc(C)n2)CC1 [compound 421]	3 (Class 3: The value of percent of control at 10^−7 M was more than 60% or the value of IC50 was more than 200 nM.)
Cc1nc(N[C@H]2CC[C@@H](NC(=O)Nc3c(C)cccc3C(C)(C)C)CC2)cc(N(C)C)n1 [compound 422]	2 (Class 2: The value of percent of control at 10^−7 M was from 40% to 60% or the value of IC50 was from 50 nM to 200 nM.)
Cc1nc(N[C@H]2CC[C@@H](NC(=O)Nc3c(Br)cc(C(C)C)cc3Br)CC2)cc(N(C)C)n1 [compound 423]	3 (Class 3: The value of percent of control at 10^−7 M was more than 60% or the value of IC50 was more than 200 nM.)
Cc1nc(N[C@H]2CC[C@@H](NC(=O)Nc3ccccc3OC(F)(F)F)CC2)cc(N(C)C)n1 [compound 424]	3 (Class 3: The value of percent of control at 10^−7 M was more than 60% or the value of IC50 was more than 200 nM.)
COc1cc(NC(=O)N[C@H]2CC[C@@H](Nc3cc(N(C)C)nc(C)n3)CC2)cc(OC)c1OC [compound 425, N-(cis-4-{[6-(dimethylamino)-2-methylpyrimidin-4-yl]amino}cyclohexyl)-N′-(3,4,5-trimethoxyphenyl)urea]	1 (Class 1: The value of percent of control at 10^−7 M was less than 40% or the value of IC50 was less than 50 nM.)
COc1cc(OC)c(NC(=O)N[C@H]2CC[C@@H](Nc3cc(N(C)C)nc(C)n3)CC2)cc1Cl [compound 426, N-(5-chloro-2,4-dimethoxyphenyl)-N′-(cis-4-{[6-(dimethylamino)-2-methylpyrimidin-4-yl]amino}cyclohexyl)urea]	2 (Class 2: The value of percent of control at 10^−7 M was from 40% to 60% or the value of IC50 was from 50 nM to 200 nM.)
COc1ccc(NC(=O)N[C@H]2CC[C@@H](Nc3cc(N(C)C)nc(C)n3)CC2)cc1OC1CCCC1 [compound 427]	3 (Class 3: The value of percent of control at 10^−7 M was more than 60% or the value of IC50 was more than 200 nM.)
CCOc1ccccc1NC(=O)N[C@H]1CC[C@@H](Nc2cc(N(C)C)nc(C)n2)CC1 [compound 428]	3 (Class 3: The value of percent of control at 10^−7 M was more than 60% or the value of IC50 was more than 200 nM.)
Cc1nc(N[C@H]2CC[C@@H](NC(=O)Nc3c(Br)cc(Br)cc3Br)CC2)cc(N(C)C)n1 [compound 429, N-(cis-4-{[6-(dimethylamino)-2-methylpyrimidin-4-yl]amino}cyclohexyl)-N′-(2,4,6-tribromophenyl)urea]	1 (Class 1: The value of percent of control at 10^−7 M was less than 40% or the value of IC50 was less than 50 nM.)
